Test results published in patent publication US9890166B2, “Imidazopyrrolidine derivatives and their use in the treatment of disease” (NOVARTIS AG, priority 2013, dated 2018).

Experiments:
[1] = target: CREBBP bromodomain (His-CREBBP(1081-1197)) (Homo sapiens (Human), UniProt Q92793); test: AlphaScreen in-vitro binding assay for CREBBP; conditions: single determination or n ≧ 2 independent determinations, read-out: Biochemical IC50 CREBBP
In short: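 Reactions at 30 °C for 35 min, then Ni-chelate acceptor and streptavidin donor beads in HEPES pH 7.5, NaCl, Tween20, BSA, 60 min at room temperature. Eight-point compound series; IC50 by non-linear regression of percent inhibition.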

[2] = target: nuclear BRD4-NUT foci in HCC2494 NUT midline carcinoma cells (Homo sapiens, UniProt O60885); test: cell-based
BRD3 (His-Brd3(20-477)) = BRD3 (His-Brd3(20-477)) (Homo sapiens (Human), UniProt Q15059); test: TR-FRET in-vitro binding assay for BRD3; conditions: single determination or n ≧ 2 independent determinations, read-out: Biochemical IC50 BRD3
In short: (§1)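 Compounds were serially diluted over eight concentrations and added to wells. TR-FRET signal was then measured.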

K-562 cells = test: Cell growth inhibition assay (CellTiter-Glo), K-562; conditions: for GI50: Homo sapiens, K562, read-out: K-562 GI50; for K-562 TGI: K-562 cells, total growth inhibition, CellTiter-Glo;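 as to all read-outs here: cellular ATP measured by luminescence after 4 days of exposure, 3-fold dilution series from 10 µM, DMSO vehicle-treated cells define 100%, cell-free medium wells −100%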
BRD4 (His-Brd4(44-477)) = BRD4 (His-Brd4(44-477)) (Homo sapiens (Human), UniProt O60885); test: TR-FRET in-vitro binding assay for BRD4; conditions: single determination or n ≧ 2 independent determinations, read-out: Biochemical IC50 BRD4
In short: as §1

THP-1 cells = test: Cell growth inhibition assay (CellTiter-Glo), THP-1; conditions: for GI50: Homo sapiens, THP-1, read-out: THP-1 GI50; for THP-1 TGI: THP-1 cells, total growth inhibition, CellTiter-Glo;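 as to all read-outs here: viability read as cellular ATP luminescence after 4 days, 3-fold dilution series from 10 µM, DMSO vehicle-treated cells taken as 100%, cell-free medium wells as −100%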
BRD2 (His-Brd2(60-472)) = BRD2 (His-Brd2(60-472)) (Homo sapiens (Human), UniProt P25440); test: TR-FRET in-vitro binding assay for BRD2; conditions: single determination or n ≧ 2 independent determinations, read-out: Biochemical IC50 BRD2
In short: as §1

MV-4-11 cells = test: Cell growth inhibition assay (CellTiter-Glo), MV-4-11; conditions: for GI50: Homo sapiens, MV4-11, read-out: MV-4-11 GI50; for MV-4-11 TGI: MV-4-11 cells, total growth inhibition, CellTiter-Glo;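 as to all read-outs here: cellular ATP luminescence after 4 days, 3-fold dilution series from 10 µM top dose, vehicle (0.1% DMSO) set to 100%, cell-free medium set to −100%, day 0 corrected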

BRD2 (His-Brd2(60-472)), sequence (P25440 60-472): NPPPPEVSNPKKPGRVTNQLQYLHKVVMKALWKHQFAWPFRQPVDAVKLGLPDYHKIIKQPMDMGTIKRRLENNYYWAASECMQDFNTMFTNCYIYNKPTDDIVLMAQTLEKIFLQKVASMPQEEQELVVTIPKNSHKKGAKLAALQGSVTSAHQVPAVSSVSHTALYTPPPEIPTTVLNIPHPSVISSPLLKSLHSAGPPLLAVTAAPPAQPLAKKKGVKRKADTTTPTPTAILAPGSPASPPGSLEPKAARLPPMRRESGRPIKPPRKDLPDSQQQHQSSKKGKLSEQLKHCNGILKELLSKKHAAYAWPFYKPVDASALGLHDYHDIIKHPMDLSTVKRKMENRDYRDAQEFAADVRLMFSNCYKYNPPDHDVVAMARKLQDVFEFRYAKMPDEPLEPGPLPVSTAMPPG
BRD3 (His-Brd3(20-477)), sequence (Q15059 20-477): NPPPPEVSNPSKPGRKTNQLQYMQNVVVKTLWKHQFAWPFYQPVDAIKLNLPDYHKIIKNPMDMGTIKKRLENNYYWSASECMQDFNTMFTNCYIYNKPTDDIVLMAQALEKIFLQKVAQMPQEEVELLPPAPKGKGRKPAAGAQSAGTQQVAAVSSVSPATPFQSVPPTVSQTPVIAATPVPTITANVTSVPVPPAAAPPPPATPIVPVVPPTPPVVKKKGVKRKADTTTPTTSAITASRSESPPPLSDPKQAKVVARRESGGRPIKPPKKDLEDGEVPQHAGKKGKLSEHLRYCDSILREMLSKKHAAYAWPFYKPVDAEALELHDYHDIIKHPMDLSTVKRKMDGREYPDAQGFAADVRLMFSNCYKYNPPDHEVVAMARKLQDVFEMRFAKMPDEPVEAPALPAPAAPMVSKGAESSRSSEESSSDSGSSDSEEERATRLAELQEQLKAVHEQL
CREBBP bromodomain (His-CREBBP(1081-1197)), sequence (Q92793 1081-1197): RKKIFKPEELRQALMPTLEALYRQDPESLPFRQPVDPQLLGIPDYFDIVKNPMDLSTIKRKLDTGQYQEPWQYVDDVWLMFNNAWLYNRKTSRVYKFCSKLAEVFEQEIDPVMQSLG

SMILES	IC50 [1] [nM]	IC50 [2] [nM]	IC50 (BRD3 (His-Brd3(20-477))) [nM]	GI50 (K-562 cells) [nM]	K-562 TGI (K-562 cells) [nM]	IC50 (BRD4 (His-Brd4(44-477))) [nM]	GI50 (THP-1 cells) [nM]	THP-1 TGI (THP-1 cells) [nM]	IC50 (BRD2 (His-Brd2(60-472))) [nM]	GI50 (MV-4-11 cells) [nM]	MV-4-11 TGI (MV-4-11 cells) [nM]
Cc1cc(N2C(=O)c3nc(C4=CCCN(C)C4)n(C(C)C)c3C2c2ccc(Cl)cc2)cn2c(C)nnc12 (centres unmarked) [Example 12, 6-(4-chlorophenyl)-5-(3,8-dimethyl-[1,2,4]triazolo[4,3-a]pyridin-6-yl)-1-isopropyl-2-(1-methyl-1,2,5,6-tetrahydropyridin-3-yl)-5,6-dihydropyrrolo[3,4-d]imidazol-4(1H)-one]	8900	374	21	1040	>10000	20	264	715	43	42.2	78.45
Cc1cc(N2C(=O)c3nc(C4=CCOCC4)n(C(C)C)c3C2c2ccc(Cl)cc2)cn2c(C)nnc12 (centres unmarked) [Example 14, 6-(4-chlorophenyl)-2-(3,6-dihydro-2H-pyran-4-yl)-5-(3,8-dimethyl-[1,2,4]triazolo[4,3-a]pyridin-6-yl)-1-isopropyl-5,6-dihydropyrrolo[3,4-d]imidazol-4(1H)-one]	2300	40.9	15	203	>10000	16	66	120	33	20.4	38.8
Cc1cc(N2C(=O)c3nc(-c4ncco4)n(C(C)C)c3C2c2ccc(Cl)cc2)cn2c(C)nnc12 (centres unmarked) [Example 15, 6-(4-chlorophenyl)-5-(3,8-dimethyl-[1,2,4]triazolo[4,3-a]pyridin-6-yl)-1-isopropyl-2-(oxazol-2-yl)-5,6-dihydropyrrolo[3,4-d]imidazol-4(1H)-one]	16100	80	41	318	>10000	37	71.9	132	48	42	86.25
COc1ccc(-c2nc3c(n2C)C(c2ccc(Cl)cc2)N(c2cc(C)c4nnc(C)n4c2)C3=O)cn1 (centres unmarked) [Example 16, 6-(4-chlorophenyl)-5-(3,8-dimethyl-[1,2,4]triazolo[4,3-a]pyridin-6-yl)-2-(6-methoxypyridin-3-yl)-1-methyl-5,6-dihydropyrrolo[3,4-d]imidazol-4(1H)-one]	> 24000	263	47	562	>10000	45	220	370	49	74.3	125.5
COc1cc(N2C(=O)c3nc(C4CC4)n(C(C)C)c3C2c2ccc(Cl)cc2)cn2c(C)nnc12 (centres unmarked) [Example 17, 6-(4-chlorophenyl)-2-cyclopropyl-1-isopropyl-5-(8-methoxy-3-methyl-[1,2,4]triazolo[4,3-a]pyridin-6-yl)-5,6-dihydropyrrolo[3,4-d]imidazol-4(1H)-one]	> 37000	323	75	1080	>10000	41	322	704.5	100	166	316.5
CCn1c(-c2ccc(OC)nc2)nc2c1C(=O)N(c1cc(C)c(=O)n(C)c1)C2c1ccc(Cl)cc1 (centres unmarked) [Example 38, 6-(4-chlorophenyl)-5-(1,5-dimethyl-6-oxo-1,6-dihydropyridin-3-yl)-3-ethyl-2-(6-methoxypyridin-3-yl)-5,6-dihydropyrrolo[3,4-d]imidazol-4(3H)-one]	2000	24.5	76	271	>10000	78	74.9	118	92.5	30.1	48.9
CCn1c(-c2ccc(OC)nc2)nc2c1C(=O)N(c1cc(C)c(=O)n(C)c1)[C@@H]2c1ccc(Cl)cc1 [Example 39, (R)-6-(4-chlorophenyl)-5-(1,5-dimethyl-6-oxo-1,6-dihydropyridin-3-yl)-3-ethyl-2-(6-methoxypyridin-3-yl)-5,6-dihydropyrrolo[3,4-d]imidazol-4(3H)-one]	910	21.1	32	72	>10000	28.5	26.2	48.1	24	11.7	23.9
CCn1c(-c2cccnc2OC)nc2c1C(=O)N(c1cc(C)c(=O)n(C)c1)[C@@H]2c1ccc(Cl)cc1 [Example 41, (R)-6-(4-chlorophenyl)-5-(1,5-dimethyl-6-oxo-1,6-dihydropyridin-3-yl)-3-ethyl-2-(2-methoxypyridin-3-yl)-5,6-dihydropyrrolo[3,4-d]imidazol-4(3H)-one]	430	7	17	45.2	>10000	16	13.8	30.6	15.5	6.72	11
CCn1c(-c2ccnn2C)nc2c1C(=O)N(c1cc(C)c(=O)n(C)c1)C2c1ccc(Cl)cc1 (centres unmarked) [Example 42, 6-(4-chlorophenyl)-5-(1,5-dimethyl-6-oxo-1,6-dihydropyridin-3-yl)-3-ethyl-2-(1-methyl-1H-pyrazol-5-yl)-5,6-dihydropyrrolo[3,4-d]imidazol-4(3H)-one]	3400	64.2	61	274	>10000	69	74.3	126	65	53.5	102.3
Cc1cc(N2C(=O)c3nc(-c4nccs4)n(C4CC4)c3C2c2ccc(Cl)cc2)cn(C)c1=O (centres unmarked) [Example 43, 6-(4-chlorophenyl)-1-cyclopropyl-5-(1,5-dimethyl-6-oxo-1,6-dihydropyridin-3-yl)-2-(thiazol-2-yl)-5,6-dihydropyrrolo[3,4-d]imidazol-4(1H)-one]	32300	52.9	55	356	>10000	64	90.5	162.5	59.5	66.2	99.55
COc1ncccc1-c1nc2c(n1C(C)C)C(=O)N(c1cc(C)c(=O)n(C)c1)[C@@H]2c1ccc(Cl)cc1 [Example 45, (R)-6-(4-chlorophenyl)-5-(1,5-dimethyl-6-oxo-1,6-dihydropyridin-3-yl)-3-isopropyl-2-(2-methoxypyridin-3-yl)-5,6-dihydropyrrolo[3,4-d]imidazol-4(3H)-one]	1000	49.7	17	126	>10000	16	32.8	60.5	17	22.5	43.9
Cc1cc(N2C(=O)c3[nH]c(C4CC4)nc3C2c2ccc(Cl)cc2)cn(C)c1=O (centres unmarked) [Example 46, 6-(4-chlorophenyl)-2-cyclopropyl-5-(1,5-dimethyl-6-oxo-1,6-dihydropyridin-3-yl)-5,6-dihydropyrrolo[3,4-d]imidazol-4(3H)-one]	2000	226	77	499	>10000	78	145	305	84	65.3	108
Cc1cc(N2C(=O)c3[nH]c(C4CC4)nc3[C@H]2c2ccc(Cl)cc2)cn(C)c1=O [Example 47, R-6-(4-chlorophenyl)-2-cyclopropyl-5-(1,5-dimethyl-6-oxo-1,6-dihydropyridin-3-yl)-5,6-dihydropyrrolo[3,4-d]imidazol-4(3H)-one]	1100	81.3	38	305	>10000	40	74.3	141	39	42.5	102.8
